According to patent US12258358B1, “Ferrocene-substituted organometallic complexes” (THE REGENTS OF THE UNIVERSITY OF CALIFORNIA, priority 2023, dated 2025):

Assay: Cyclic voltammetry (CV) in MeCN electrolyte solution
Type: physicochemical
Conditions: for range over which the redox couples are observed (estimation of the Vcell): symmetric battery configuration assumed
Description: Cyclic voltammetry (CV) measurements were used to determine the E1/2 values for 2-OTf and 3-OTf, and those measurements were performed in 0.1 Bu4NBF4 MeCN solution. Five redox couples, corresponding to 8 electron transfer (ET) events were observed over the potential range for 2-OTf and 3-OTf, respectively (FIGS. 3A and 3B). The electrochemistry of 2 is expected to be the same as 2-OTF, although 2-OTf has different solubility. The range of about 1.8 V over which the redox couples are observed provides an estimation of the Vcell for a battery which could be constructed using 2^+ as the analyte, if the battery is constructed with a symmetric configuration where 2 is the analyte for both the cathode and anode.
Cyclic voltammograms (CVs) were recorded in a nitrogen-filled glovebox with a CH Instruments Electrochemical Analyzer Model 620D or 1400 with a glassy carbon working electrode (CH Instruments, nominal surface area of 0.071 cm^2), a platinum wire auxiliary electrode, and an Ag/AgNO3 (0.001M) non-aqueous reference electrode with a Vycor tip. All potentials are referenced to the SCE couple, and ferrocene was used as an external standard where the E1/2 of ferrocene/ferrocenium is +0.40 V vs. SCE in 0.1 M Bu4NPF6 MeCN. Bu4NPF6 was recrystallized from ethanol and placed under vacuum for 72 hours before electrolyte solutions were made. Electrolyte solutions were stored over 3 Å molecular sieves for at least 48 hours before use. Sieves were activated by heating under vacuum at 270° C. for at least 72 hours. UV-Vis spectra were obtained using a 1 cm cuvette using an Agilent 8453 UV-vis spectrophotometer.

[1] = 0.1 Bu4NBF4 MeCN solution, glassy carbon working electrode

Substance | electron transfer (ET) events observed over the potential range (five redox couples) (0.1 Bu4NBF4 MeCN solution) | range over which the redox couples are observed (estimation of the Vcell) | E1/2 of the 3^0/− couple [1] | E1/2 of the 3^2+/+ couple [1] | E1/2 of the 3^6+/2+ four-electron couple [1] | E1/2 of the 3^+/0 couple [1] | E1/2 of the 3^−/2− couple [1]
[(FcI2P^−)2Al)]OTf [Complex 2-OTf] | 8 | about 1.8 V | – | – | – | – | –
[(^EtOFcI2P^−)2Al)](OTf) [Complex 3-OTf] | 8 | 1.9 V | −1.02 V vs SCE | +0.00 V vs SCE | +0.60 V vs SCE | −0.33 V vs SCE | −1.39 V vs SCE
